Key:
Type in all cases: biochemical
[1] = target: T1, receptor-interacting protein kinase 2 (RIPK2) (Homo sapiens, UniProt O43353); assay: in vitro enzyme inhibition, % inhibition at […]; settings: 5 µM
R171C RIPK2 [2] = target: T2, R171C RIPK2 (Homo sapiens, UniProt O43353, R171C); assay: in vitro enzyme inhibition, % inhibition at […]; settings: 5 µM
[3] = target: T1, receptor-interacting protein kinase 2 (RIPK2); assay: in vitro enzyme inhibition, % inhibition at […]; settings: 0.5 µM
[4] = target: T1, receptor-interacting protein kinase 2 (RIPK2); assay: in vitro RIPK2 enzyme inhibition
[5] = target: T1, receptor-interacting protein kinase 2 (RIPK2); assay: in vitro enzyme inhibition, % inhibition at […]; settings: 1 µM
R171C RIPK2 [6] = target: T2, R171C RIPK2; assay: in vitro enzyme inhibition, % inhibition at […]; settings: 1 µM
[7] = target: T1, receptor-interacting protein kinase 2 (RIPK2); assay: X-ray co-crystal structure ([…] Å); in vitro enzyme inhibition IC50
R171C RIPK2 [8] = target: T2, R171C RIPK2; assay: in vitro RIPK2 enzyme inhibition

T1 sequence (O43353 whole entry): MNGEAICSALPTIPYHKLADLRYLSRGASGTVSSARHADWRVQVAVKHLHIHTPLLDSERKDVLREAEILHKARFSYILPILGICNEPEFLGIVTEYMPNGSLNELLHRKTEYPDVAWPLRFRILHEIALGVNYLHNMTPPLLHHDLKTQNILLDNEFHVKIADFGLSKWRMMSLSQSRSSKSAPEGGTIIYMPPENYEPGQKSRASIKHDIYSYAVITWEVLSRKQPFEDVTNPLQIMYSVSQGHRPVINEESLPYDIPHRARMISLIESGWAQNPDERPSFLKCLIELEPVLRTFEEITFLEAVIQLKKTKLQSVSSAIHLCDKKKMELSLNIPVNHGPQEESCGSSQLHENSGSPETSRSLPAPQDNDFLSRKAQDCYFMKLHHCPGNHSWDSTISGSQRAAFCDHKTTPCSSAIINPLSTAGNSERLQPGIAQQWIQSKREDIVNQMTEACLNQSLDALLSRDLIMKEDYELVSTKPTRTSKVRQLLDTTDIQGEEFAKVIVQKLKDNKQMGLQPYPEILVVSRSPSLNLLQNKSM
T2 sequence (O43353 whole entry R171C): as the sequence (O43353 whole entry) above, with R171C counted along it

CNC(=O)c1cc(Oc2ccc(NC(=O)Nc3cccc(CC(=O)OC)c3)c(F)c2)ccn1 [CSR30]
% Inhibition / RIPK2 WT [1]: 69 | % Inhibition / R171C RIPK2 (R171C RIPK2 [2]): 76

CNC(=O)c1cc(Oc2ccc(NC(=O)Nc3cccc(CC#N)c3)c(F)c2)ccn1 [CSR25]
% Inhibition / RIPK2 WT [3]: 43

O=C(O)CSc1ccc(NC(=O)Nc2ccccc2F)cc1F [CSR35F2]
IC50 [4]: 13.2 ± 1.7 µM

CNC(=O)c1cc(Oc2ccc(NC(=O)Nc3ccc(SCC(=O)OC)c(F)c3)c(F)c2)ccn1 [CSR36]
% Inhibition / RIPK2 WT [5]: 94 | % Inhibition / R171C RIPK2 (R171C RIPK2 [6]): 92

CNC(=O)c1cc(Oc2ccc(NC(=O)Nc3ccc(SCC(=O)O)c(F)c3)c(F)c2)ccn1 [CSR35]
IC50 [7]: 2260 ± 110 nM | IC50 (R171C RIPK2 [8]): 4.87 ± 0.96 µM

CNC(=O)c1cc(Oc2ccc(NC(=O)Nc3cccc(C(C)(C)C(=O)O)c3)c(F)c2)ccn1 [CSR29]
% Inhibition / R171C RIPK2 (R171C RIPK2 [2]): 67

From paper PMC5819902, “Activation loop targeting strategy for design of receptor-interacting protein kinase 2 (RIPK2) inhibitors” (Bioorganic & Medicinal Chemistry Letters, 2018)
